# From US9535058B2, “Flow chamber analyte detection method” (Drexel University, priority 2010, dated 2017)
# System: Bovine aortic endothelial cells (BAECs)
# Assay: Shear stress-induced NO production by endothelial cells in the two-compartment flow chamber, NO electrode measurement
# Format: cell-based
# Settings: 1 mM L-NAME
# Procedure: Bovine aortic endothelial cells (BAECs) were cultured in Dulbecco's modified Eagle's medium (Mediatech Cellgro), supplemented with 10% fetal bovine serum (Sigma), 2 mmol/l L-glutamine (Mediatech Cellgro), and penicillin-streptomycin (Mediatech Cellgro). The cells were grown to confluency and subsequently plated onto the lower surface of individual polyester Transwell® membranes (Corning Transwell Permeable Supports having a 24 mm diameter culture area with 3 μm pores). The Transwell® membranes were then placed in an incubator overnight, inverted and cultured for 1 day before conducting the experimental study. The Transwell® membranes were subsequently washed 3 three times with a solution of Dulbecco's Phosphate Buffered Saline (PBS) with calcium/magnesium (Sigma) supplemented with 70 μM L-arginine (L-arg) (Sigma) and inserted into the flow chamber.
# The flow chamber included an electrode and equipment for measuring NO (TBR4100 4-channel Free Radical Analyzer and 200 μm diameter mini sensors for NO measurements ISO-NOPF). The electrodes were frequently recoated with nafion (Sigma) and re-calibrated during the experimental study to improve selectivity. The recoating process involved at least two dip/dry sessions. The electrodes were calibrated by the decomposition of a NO donor S-nitroso-N-acetyl-penicillamine (SNAP) using Cu(II). The SNAP was prepared by dissolving 5 mg EDTA and 5.0 mg+/−2.0 mg of SNAP in 250 mL HPLC grade water. The electrode was immersed in 12 mL of 0.1 M copper(II) sulfate in distilled water for about 1 to about 2 hours until the electrode stabilized. Aliquots of SNAP were sequentially added in an amount of about 10 μL, 20 μL, 40 μL, 80 μL after each signal reached a plateau. A multipoint calibration plot was created using Data-Trax software (produced by WPI). The sampling rate was 10 samples/s. The change in recorded potential was converted to corresponding molarities of NO produced by SNAP addition. The efficiency of the conversion of SNAP to NO was 0.6. Electrode sensitivity was at least about 10 pA/nM. […] The temperature probe supplied by WPI was pre-scaled using a two-point entry of known temperatures (0.03125V=1° C., 0.625V=20° C.).
# The dimensions (in cm) of the flow channel were about: 4.57 W×12.19 L×0.025 H. The flow inlet and outlet had large reservoirs with sampling ports. A glass coverslip covered an opening in the bottom plate, allowing visualization of the cell layer and the electrode on an inverted microscope. As shown in FIGS. 5-6, endothelial cells were grown on the lower surface of a Transwell® porous membrane, which fit into the flow chamber flush with the upper plate of the flow chamber. […] Below the Transwell® membrane, fluid flowed through the parallel plate channel that defined the lower compartment, exposing the endothelial cells to uniform shear stress. Above the Transwell® membrane, a stagnant upper fluid compartment, having a small volume housed the NO electrode and temperature sensor. This design placed the electrode out of the fluid flow avoiding problems associated with potential flow sensitivities, flow disturbances and chamber leaking at the electrode insertion site. Furthermore, due to the small volume and zero flux condition at the other boundaries of the stagnant upper fluid compartment and the short diffusion distance through the membrane, the concentration of NO in the upper fluid compartment was nearly uniform and rapidly equilibrated with the concentration in the cell layer. The electrode was lowered into the upper compartment of the flow chamber until it rested on the surface of the Transwell® membrane at a fixed distance from the ECs of about 10 μm equal to the thickness of the membrane. This configuration allowed the NO generated by the cells to be measured abluminally from the endothelial cell layer. Due to the temperature sensitivity of the NO electrode, the flow chamber was enclosed in a water bath at 37° C. in order to prevent heat loss and temperature fluctuations. […]
smiles,measurement,setting,value
"COC(=O)[C@@H](N)CCCNC(=N)N[N+](=O)[O-] [L-NAME, Nω-Nitro-L-arginine methyl ester]","RNO (NO production rate) as % of RNO estimated from untreated ECs, hyperbolic model","L-arg also in perfusate, shear stress change 0.1 to 20 dyn/cm^2, hyperbolic model fit",about 57.6%
same,"RNO (NO production rate) as % of RNO estimated from untreated ECs, linear model","L-arg also in perfusate, shear stress change 0.1 to 20 dyn/cm^2, linear model fit",about 57.3%
same,"RNO (NO production rate) as % of RNO estimated from untreated ECs, sigmoidal model","L-arg also in perfusate, shear stress change 0.1 to 20 dyn/cm^2, sigmoidal model fit",about 58.3%
same,reduction of steady-state NO concentration changes in response to shear stress step changes after treatment with L-NAME,"pH 7.2, step changes from 0.1 dyn/cm^2 to 1, 6, 10 or 20 dyn/cm^2, vs before treatment, FIG. 10",40%
same,"effect on shear stress-induced NO concentration changes (Example 1, in words)",flow-induced shear stress stimulation,partially attenuated
same,"steady-state NO concentration changes after treatment, as % of the untreated values (average)","shear stress step changes from 0.1 dyn/cm^2, FIG. 10",60%
same,effect on flow induced NO response (Example 2),step changes from about 1 to about 5 and about 1 to about 10 dyn/cm^2,significantly reduced
